Results from patent publication US6258845A (priority 1999, dated 2001).
“Also recorded” adds a separate entry of the source.

Experiments:
[1] = test system: AOM-treated rat model of colon carcinogenesis; conditions: in vivo; cited from earlier work
[2] = test system: carcinogenesis in rodent/animal models; conditions: in vivo; cited from earlier work
[3] = test system: prostaglandin E2 (PGE2) levels in flat mucosa; assay: Ibuprofen one month trial, PGE2 levels in flat mucosa; conditions: 300 mg/day
[4] = test system: Caco-2 parental cells, Ki-ras clone #60 and Ki-ras clone #66; assay: Viable cell number (trypan blue dye exclusion), growth of Caco-2 parental and Ki-ras transfected cells; assay type: cell-based, human
Caco-2 parental cells = assay: Induction of apoptosis (light microscopy) in Caco-2 parental cells; assay type: cell-based, human; conditions: 120 μM sulindac sulfide; Caco-2 parental
Protocol: (§1) FIG. 3. […] Apoptosis was determined by light microscopy.
(§2) FIG. 8. […] Cells were grown over a period of 6 days. Cells were harvested at various days (0, 2, 4 and 6 days), spun onto slides and stained. Apoptosis was determined by light microscopy. Percentage of apoptotic cells was calculated as the number of apoptotic cells out of the total cells counted times 100. At least 500 cells were counted for each sample.
(§3) Cells were grown over a period of 6 days. Cells were harvested at various days (0, 2, 4 and 6 days), spun onto slides and stained. Apoptosis was determined by light microscopy. Percentage of apoptotic cells was calculated as the number of apoptotic cells out of the total cells counted times 100.

Ki-ras clone #60 = assay: Induction of apoptosis (light microscopy) in Ki-ras clone 60; assay type: cell-based, human; conditions: 120 μM sulindac sulfide
Protocol: as §1, §2, §3

[5] = test system: Caco-2 and clone 60 cells; assay: Clonogenic assay (colony-forming efficiency), Caco-2 and clone 60 cells; assay type: cell-based, human
[6] = test system: Ki-ras transfected Caco-2 cells; assay: Induction of apoptosis in Ki-ras transfected versus parental Caco-2 cells; assay type: cell-based, human; conditions: 120 μM sulfide, 600 μM sulfone
Protocol: as §1

[7] = human, in vivo, po; cited from earlier work
rat enterocytes = conditions: cited from earlier work
Ki-ras clone #66 = assay: Induction of apoptosis (light microscopy) in Ki-ras clone 66; conditions: 120 μM sulindac sulfide; printed 'clone 6'

Compound | inhibition of colon carcinogenesis in AOM-treated rat model [1] | chemoprevention / inhibition of tumor development in animal models [2] | PGE2 levels in flat mucosa [3] | Ki-ras selective toxicity / Ki-ras-specific effect on growth ([4]; 120 μM sulindac sulfide or 600 μM sulindac sulfone) | number of viable cells ([4]; 120 μM sulindac sulfide, 10-day growth) | time of peak apoptosis (Caco-2 parental cells) [days] | time of peak apoptosis (Ki-ras clone #60) [days] | survival normalized to like DFMO-treated controls ([5]; 5 mM DFMO, increasing concentrations of sulindac sulfide) | IC50 ([5]; Homo sapiens, Caco-2, 24 h, read-out: 50% decrease in cell number) [µM] | effect of Ki-ras activation on viability / colony-forming efficiency after sulindac metabolite ([5]; increasing concentrations, 24 h) | onset of apoptosis in Ki-ras transfected cells compared with parental cells [6] | mean half-life [7] [h] | resistance to apoptosis on Ki-ras activation (rat enterocytes) | time of peak apoptosis (Ki-ras clone #66) [days]
CC(C)Cc1ccc(C(C)C(=O)O)cc1 (centres unmarked) [ibuprofen] | effectively inhibit colon carcinogenesis | less effective than other NSAIDs | significant decrease |  |  |  |  |  |  |  |  |  |  | 
CSc1ccc(/C=C2/C(C)=C(CC(=O)O)c3cc(F)ccc32)cc1 [sulindac sulfide] |  |  |  | nor did sulindac sulfide or sulfone exert a Ki-ras-specific effect on growth | remained relatively unchanged throughout the 10-day growth period | 8 | 4 | the survival rates of the DFMO-treated cells mirrored those of the non-DFMO-treated cells | ~225 | did not reveal any differences in colony-forming efficiency between Ki-ras transfectants and parental Caco-2 cells | accelerate the onset of apoptosis; also recorded: occurred several days earlier in Ki-ras transfected cells than in parental cells | 16.4 | confers resistance to apoptosis | 6
